Biological target: T1, BRM (Homo sapiens, UniProt P51531)
T1 construct: In-Cell Western Screen of BRM Degradation in SW1573 Cells; endogenous in cells; host or cells: SW1573
Assay: In-cell Western screen of BRM degradation in SW1573 cells (Dmax and DC50)
Format: cell-based
Conditions: for DC50: BRM degradation, read-out: BRM DC50; for Dmax: SW1573, % degraded, when tested at the top concentration of between 0.3 and 10 μM, read-out: BRM Dmax (%)
In short: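 After adhering overnight, cells received compound for 18-20 hours. They were then washed in cold DPBS, fixed with 4% PFA for 20 min and permeabilized for 30 min. Blocking and fluorescent secondary staining followed before imaging.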

T1 sequence (P51531 whole entry): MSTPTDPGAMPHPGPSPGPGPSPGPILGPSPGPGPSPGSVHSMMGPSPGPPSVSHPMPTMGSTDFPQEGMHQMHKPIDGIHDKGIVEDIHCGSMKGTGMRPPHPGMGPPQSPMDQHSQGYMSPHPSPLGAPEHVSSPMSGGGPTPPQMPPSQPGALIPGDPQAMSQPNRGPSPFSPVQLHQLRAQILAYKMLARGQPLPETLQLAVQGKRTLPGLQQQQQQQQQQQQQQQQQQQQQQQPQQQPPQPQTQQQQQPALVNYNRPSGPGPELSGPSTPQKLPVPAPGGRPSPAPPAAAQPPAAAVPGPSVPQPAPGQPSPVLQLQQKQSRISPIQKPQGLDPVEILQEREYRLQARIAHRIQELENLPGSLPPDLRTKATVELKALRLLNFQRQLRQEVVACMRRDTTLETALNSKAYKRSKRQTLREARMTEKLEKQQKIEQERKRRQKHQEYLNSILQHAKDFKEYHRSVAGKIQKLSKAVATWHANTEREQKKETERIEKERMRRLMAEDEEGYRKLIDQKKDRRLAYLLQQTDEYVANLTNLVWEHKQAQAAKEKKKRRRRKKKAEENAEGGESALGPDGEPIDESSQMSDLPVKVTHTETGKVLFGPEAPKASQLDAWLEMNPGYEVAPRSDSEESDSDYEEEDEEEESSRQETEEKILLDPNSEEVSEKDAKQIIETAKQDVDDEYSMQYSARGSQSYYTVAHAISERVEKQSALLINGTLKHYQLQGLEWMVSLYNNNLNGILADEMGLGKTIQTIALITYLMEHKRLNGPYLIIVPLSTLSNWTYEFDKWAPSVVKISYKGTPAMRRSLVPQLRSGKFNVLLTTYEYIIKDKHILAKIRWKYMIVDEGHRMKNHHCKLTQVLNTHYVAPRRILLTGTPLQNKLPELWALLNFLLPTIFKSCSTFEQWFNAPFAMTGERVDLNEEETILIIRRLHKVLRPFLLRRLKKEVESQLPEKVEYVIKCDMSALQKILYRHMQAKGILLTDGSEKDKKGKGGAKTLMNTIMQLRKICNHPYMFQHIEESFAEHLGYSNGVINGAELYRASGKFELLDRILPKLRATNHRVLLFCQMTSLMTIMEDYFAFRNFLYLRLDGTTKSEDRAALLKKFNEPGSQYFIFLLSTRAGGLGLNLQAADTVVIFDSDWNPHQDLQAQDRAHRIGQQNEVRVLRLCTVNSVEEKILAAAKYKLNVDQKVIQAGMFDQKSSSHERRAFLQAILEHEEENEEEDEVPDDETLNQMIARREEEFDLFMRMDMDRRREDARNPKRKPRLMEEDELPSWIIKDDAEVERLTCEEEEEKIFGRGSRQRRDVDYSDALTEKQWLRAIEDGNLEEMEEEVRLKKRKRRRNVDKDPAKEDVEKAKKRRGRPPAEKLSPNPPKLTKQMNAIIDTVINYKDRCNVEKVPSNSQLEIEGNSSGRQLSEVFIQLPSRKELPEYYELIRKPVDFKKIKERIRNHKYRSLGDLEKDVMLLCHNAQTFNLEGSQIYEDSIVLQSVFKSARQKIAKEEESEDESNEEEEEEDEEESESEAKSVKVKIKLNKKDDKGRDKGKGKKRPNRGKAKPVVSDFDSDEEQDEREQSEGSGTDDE

| SMILES | DC50 [nM] | Dmax [%] |
| --- | --- | --- |
| Cc1ncsc1-c1ccc([C@H](C)NC(=O)[C@@H]2C[C@@H](O)CN2C(=O)[C@H](c2cc(OCCN3CCC(O[C@H]4C[C@H](Nc5cc(N6C7CCC6CN(c6cc(-c8ccccc8O)nnc6N)C7)ccn5)C4)CC3)no2)C(C)C)cc1 [compound 492, (2S,4R)-1-((2S)-2-(3-(2-(4-((1r,3S)-3-((4-(3-(3-amino-6-(2-hydroxyphenyl)pyridazin-4-yl)-3,8-diazabicyclo[3.2.1]octan-8-yl)pyridin-2-yl)amino)cyclobutoxy)piperidin-1-yl)ethoxy)isoxazol-5-yl)-3-methylbutanoyl)-4-hydroxy-N-((S)-1-(4-(4-methylthiazol-5-yl)phenyl)ethyl)pyrrolidine-2-carboxamide] | > 30 | – |
| Cc1ncsc1-c1ccc([C@H](C)NC(=O)[C@@H]2C[C@@H](O)CN2C(=O)[C@@H](c2cc(OCCN3CCC(O[C@H]4C[C@H](Nc5cc(N6C7CCC6CN(c6cc(-c8ccccc8O)nnc6N)C7)ccn5)C4)CC3)no2)C(C)C)cc1 [compound 493, (2S,4R)-1-((2R)-2-(3-(2-(4-((1r,3R)-3-((4-(3-(3-amino-6-(2-hydroxyphenyl)pyridazin-4-yl)-3,8-diazabicyclo[3.2.1]octan-8-yl)pyridin-2-yl)amino)cyclobutoxy)piperidin-1-yl)ethoxy)isoxazol-5-yl)-3-methylbutanoyl)-4-hydroxy-N-((S)-1-(4-(4-methylthiazol-5-yl)phenyl)ethyl)pyrrolidine-2-carboxamide] | < 2.5 | > 75 |
| Cc1cc([C@@H](C(=O)N2C[C@H](O)C[C@H]2C(=O)N[C@@H](C)c2ccc(-c3scnc3C)cc2)[C@@H](C)COCCCOc2cc(N3C4CCC3CN(c3cc(-c5ccccc5O)nnc3N)C4)ccn2)on1 [compound 494, (2S,4R)-1-((2S,3R)-4-(3-((4-(3-(3-amino-6-(2-hydroxyphenyl)pyridazin-4-yl)-3,8-diazabicyclo[3.2.1]octan-8-yl)pyridin-2-yl)oxy)propoxy)-3-methyl-2-(3-methylisoxazol-5-yl)butanoyl)-4-hydroxy-N-((S)-1-(4-(4-methylthiazol-5-yl)phenyl)ethyl)pyrrolidine-2-carboxamide] | < 2.5 | > 75 |
| Cc1cc([C@H](C(=O)N2C[C@H](O)C[C@H]2C(=O)N[C@@H](C)c2ccc(-c3scnc3C)cc2)[C@@H](C)COCCCOc2cc(N3C4CCC3CN(c3cc(-c5ccccc5O)nnc3N)C4)ccn2)on1 [compound 495, (2S,4R)-1-((2R,3R)-4-(3-((4-(3-(3-amino-6-(2-hydroxyphenyl)pyridazin-4-yl)-3,8-diazabicyclo[3.2.1]octan-8-yl)pyridin-2-yl)oxy)propoxy)-3-methyl-2-(3-methylisoxazol-5-yl)butanoyl)-4-hydroxy-N-((S)-1-(4-(4-methylthiazol-5-yl)phenyl)ethyl)pyrrolidine-2-carboxamide] | > 30 | – |
| Cc1ncsc1-c1ccc([C@H](C)NC(=O)[C@@H]2C[C@@H](O)CN2C(=O)[C@@H](c2cc(N3CCC(CN4CCC(O[C@H]5C[C@H](C#C[C@@H](C)n6cc(-c7cc(-c8ccccc8O)nnc7N)cn6)C5)CC4)CC3)no2)C(C)C)cc1 [compound 496, (2S,4R)-1-((R)-2-(3-(4-((4-((1R,3r)-3-((R)-3-(4-(3-amino-6-(2-hydroxyphenyl)pyridazin-4-yl)-1H-pyrazol-1-yl)but-1-yn-1-yl)cyclobutoxy)piperidin-1-yl)methyl)piperidin-1-yl)isoxazol-5-yl)-3-methylbutanoyl)-4-hydroxy-N-((S)-1-(4-(4-methylthiazol-5-yl)phenyl)ethyl)pyrrolidine-2-carboxamide] | < 2.5 | > 75 |
| Cc1ncsc1-c1ccc([C@H](C)NC(=O)[C@@H]2C[C@@H](O)CN2C(=O)[C@@H](c2cc(N3CCC(CN4CCC(O[C@H]5C[C@H](C#C[C@H](C)n6cc(-c7cc(-c8ccccc8O)nnc7N)cn6)C5)CC4)CC3)no2)C(C)C)cc1 [compound 497, (2S,4R)-1-((R)-2-(3-(4-((4-((1S,3r)-3-((S)-3-(4-(3-amino-6-(2-hydroxyphenyl)pyridazin-4-yl)-1H-pyrazol-1-yl)but-1-yn-1-yl)cyclobutoxy)piperidin-1-yl)methyl)piperidin-1-yl)isoxazol-5-yl)-3-methylbutanoyl)-4-hydroxy-N-((S)-1-(4-(4-methylthiazol-5-yl)phenyl)ethyl)pyrrolidine-2-carboxamide] | < 2.5 | > 75 |
| Cc1ncsc1-c1ccc([C@H](C)NC(=O)[C@@H]2C[C@@H](O)CN2C(=O)[C@H](c2cc(N3CCN(C[C@H]4C[C@H](Oc5cc(N6C7CCC6CN(c6cc(-c8ccccc8O)nnc6N)C7)ccn5)C4)CC3)no2)C(C)C)cc1 [compound 498, (2S,4R)-1-((2S)-2-(3-(4-(((1r,3S)-3-((4-(3-(3-amino-6-(2-hydroxyphenyl)pyridazin-4-yl)-3,8-diazabicyclo[3.2.1]octan-8-yl)pyridin-2-yl)oxy)cyclobutyl)methyl)piperazin-1-yl)isoxazol-5-yl)-3-methylbutanoyl)-4-hydroxy-N-((S)-1-(4-(4-methylthiazol-5-yl)phenyl)ethyl)pyrrolidine-2-carboxamide] | > 30 | – |
| Cc1ncsc1-c1ccc([C@H](C)NC(=O)[C@@H]2C[C@@H](O)CN2C(=O)[C@@H](c2cc(N3CCN(C[C@H]4C[C@H](Oc5cc(N6C7CCC6CN(c6cc(-c8ccccc8O)nnc6N)C7)ccn5)C4)CC3)no2)C(C)C)cc1 [compound 499, (2S,4R)-1-((2R)-2-(3-(4-(((1r,3R)-3-((4-(3-(3-amino-6-(2-hydroxyphenyl)pyridazin-4-yl)-3,8-diazabicyclo[3.2.1]octan-8-yl)pyridin-2-yl)oxy)cyclobutyl)methyl)piperazin-1-yl)isoxazol-5-yl)-3-methylbutanoyl)-4-hydroxy-N-((S)-1-(4-(4-methylthiazol-5-yl)phenyl)ethyl)pyrrolidine-2-carboxamide] | < 2.5 | > 75 |
| Cc1ncsc1-c1ncc([C@H](C)NC(=O)[C@@H]2C[C@@H](O)CN2C(=O)C(c2cc(OCCN3CCC(O[C@H]4C[C@H](Oc5cc(N6C7CCC6CN(c6cc(-c8ccccc8O)nnc6N)C7)ccn5)C4)CC3)no2)C(C)C)cc1F (stereo partly drawn) [compound 500, (2S,4R)-1-(2-(3-(2-(4-((1r,3r)-3-((4-(3-(3-amino-6-(2-hydroxyphenyl)pyridazin-4-yl)-3,8-diazabicyclo[3.2.1]octan-8-yl)pyridin-2-yl)oxy)cyclobutoxy)piperidin-1-yl)ethoxy)isoxazol-5-yl)-3-methylbutanoyl)-N-((S)-1-(5-fluoro-6-(4-methylthiazol-5-yl)pyridin-3-yl)ethyl)-4-hydroxypyrrolidine-2-carboxamide] | > 30 | – |
| Cc1ncsc1-c1ncc([C@@H](C)NC(=O)[C@@H]2C[C@@H](O)CN2C(=O)C(c2cc(OCCN3CCC(O[C@H]4C[C@H](Oc5cc(N6C7CCC6CN(c6cc(-c8ccccc8O)nnc6N)C7)ccn5)C4)CC3)no2)C(C)C)cc1F (stereo partly drawn) [compound 501, (2S,4R)-1-(2-(3-(2-(4-((1r,3r)-3-((4-(3-(3-amino-6-(2-hydroxyphenyl)pyridazin-4-yl)-3,8-diazabicyclo[3.2.1]octan-8-yl)pyridin-2-yl)oxy)cyclobutoxy)piperidin-1-yl)ethoxy)isoxazol-5-yl)-3-methylbutanoyl)-N-((R)-1-(5-fluoro-6-(4-methylthiazol-5-yl)pyridin-3-yl)ethyl)-4-hydroxypyrrolidine-2-carboxamide] | < 2.5 | > 75 |
| Cc1ncsc1-c1ccc([C@H](C)NC(=O)[C@@H]2C[C@@H](O)CN2C(=O)[C@@H](c2cc(OCCN3CCC(O[C@H]4C[C@H](Oc5cc(N6C7CCC6CN(c6cc(-c8cc(F)ccc8O)nnc6N)C7)ccn5)C4)CC3)no2)C(C)C)cc1 [compound 502, (2S,4R)-1-((2R)-2-(3-(2-(4-((1r,3R)-3-((4-(3-(3-amino-6-(5-fluoro-2-hydroxyphenyl)pyridazin-4-yl)-3,8-diazabicyclo[3.2.1]octan-8-yl)pyridin-2-yl)oxy)cyclobutoxy)piperidin-1-yl)ethoxy)isoxazol-5-yl)-3-methylbutanoyl)-4-hydroxy-N-((S)-1-(4-(4-methylthiazol-5-yl)phenyl)ethyl)pyrrolidine-2-carboxamide] | < 2.5 | > 75 |
| Cc1ncsc1-c1ccc([C@H](C)NC(=O)[C@@H]2C[C@@H](O)CN2C(=O)[C@H](c2cc(OCCN3CCC(O[C@H]4C[C@H](Oc5cc(N6C7CCC6CN(c6cc(-c8ccccc8O)nnc6N)C7)ccn5)C4)CC3)no2)C(C)C)nn1 [compound 503, (2S,4R)-1-((2S)-2-(3-(2-(4-((1r,3S)-3-((4-(3-(3-amino-6-(2-hydroxyphenyl)pyridazin-4-yl)-3,8-diazabicyclo[3.2.1]octan-8-yl)pyridin-2-yl)oxy)cyclobutoxy)piperidin-1-yl)ethoxy)isoxazol-5-yl)-3-methylbutanoyl)-4-hydroxy-N-((S)-1-(6-(4-methylthiazol-5-yl)pyridazin-3-yl)ethyl)pyrrolidine-2-carboxamide] | > 30 | – |
| Cc1ncsc1-c1ccc([C@H](C)NC(=O)[C@@H]2C[C@@H](O)CN2C(=O)[C@@H](c2cc(OCCN3CCC(O[C@H]4C[C@H](Oc5cc(N6C7CCC6CN(c6cc(-c8ccccc8O)nnc6N)C7)ccn5)C4)CC3)no2)C(C)C)nn1 [compound 504, (2S,4R)-1-((2R)-2-(3-(2-(4-((1r,3R)-3-((4-(3-(3-amino-6-(2-hydroxyphenyl)pyridazin-4-yl)-3,8-diazabicyclo[3.2.1]octan-8-yl)pyridin-2-yl)oxy)cyclobutoxy)piperidin-1-yl)ethoxy)isoxazol-5-yl)-3-methylbutanoyl)-4-hydroxy-N-((S)-1-(6-(4-methylthiazol-5-yl)pyridazin-3-yl)ethyl)pyrrolidine-2-carboxamide] | > 30 | – |

From patent US12539292B2, “BRM targeting compounds and associated methods of use” (Arvinas Operations, Inc., priority 2018, dated 2026)
